Source: article PMC8003314, “Design and Synthesis of Ranitidine Analogs as Multi-Target Directed Ligands for the Treatment of Alzheimer’s Disease” (International Journal of Molecular Sciences, 2021)

Legend:
[1] = target: T1, Aβ40 (Homo sapiens, UniProt P05067); assay: ThT fluorescence assay of Aβ monomer aggregation; assay type: biochemical; details: 40 μM Aβ40 monomer, mean ± SEM, n = 3–5, N.E. = not significantly different from control samples; for Plateau Reduction (% Inhibition) / Lag Time Extension (Fold Increase): 100 µM compound; for Plateau Reduction (% Inhibition) / inhibition at 100 µM: 40 mM Tris-HCl pH 8.0, 25 °C; for Lag Time Extension (Fold Increase): T2/T1 relative to control; for inhibition at 100 µM: pH 8, 100 µM compound, read-out: Plateau Reduction (% Inhibition)
T1 construct: purchased AnaSpec; host or cells: synthetic peptide
T1 sequence (P05067 672-711 limits assumed): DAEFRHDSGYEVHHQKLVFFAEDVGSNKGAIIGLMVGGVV
From the text: Synthetic Aβ40 was used in this study because it is the predominant isoform found in amyloid plaques isolated from AD brain [12]. Thioflavin T (ThT), a fluorescent compound that binds specifically to amyloid β-sheet structures to yield a shifted, enhanced florescence, was used to monitor the appearance of aggregates. […] The inhibitory effect of compounds on Aβ aggregation was evidenced as a reduction in the equilibrium plateau and/or an increase in the lag time. The plateau reduction (Figure 2A), which indicates inhibition that reduces the extent of Aβ aggregation, was defined as the percentage decrease of the plateau ThT fluorescence in the presence of inhibitor, P2, compared to the plateau ThT fluorescence in the absence of inhibitor, P1.
Lyophilized Aβ peptide was reconstituted in 50 mM NaOH at a concentration of 2 mg/mL and purified via size-exclusion chromatography (SEC) on a Superdex 75 HR 10/300 column (Cytiva, Marlborough, MA) using a running buffer of 40 mM Tris-HCl (pH 8.0). Bovine serum albumin (BSA) (2 mg/mL) was employed as a pretreatment to reduce nonspecific Aβ interaction with the dextran matrix of the column. […] The concentrations of eluted Aβ monomer fractions were determined with a calculated extinction coefficient of 1450 M^−1 cm^−1 at 276 nm. Purified Aβ monomer samples were used fresh or stored at 4 ℃ for up to 4 days.
All compounds were dissolved in DMSO at 5 mM and stored at −20 °C. […] DMSO (2% v/v) was added to control reactions run in parallel.
SEC-purified Aβ monomer was diluted to 40 μM in 40 mM Tris-HCl (pH 8.0) and agitated (vortex, 800 rpm, 25 °C) without (control) or with 100 µM ranitidine analogs. Periodically, a 20-μL aliquot was removed and combined with 140 μL of 10 μM ThT. Fluorescence (excitation = 450 nm, emission = 470–500 nm) was evaluated using a Perkin-Elmer LS-45 luminescence spectrometer (Waltham, MA, USA). Fluorescence values were calculated as the integrated area under the emission curve with baseline (ThT alone) subtraction and plotted vs. aggregation time. Each compound was evaluated using at least three independent experiments.
Figure 2 Assessment of the inhibition of Aβ monomer aggregation. Monomer aggregation assays were conducted in the absence (solid line, control) and presence (dotted line, experimental) of the ranitidine analogs, and aggregate formation was monitored as an increase in the ThT fluorescence. (A) Inhibition that decreases the quantity of aggregates formed at equilibrium is reported as the plateau reduction, the percentage decrease of the plateau ThT fluorescence in the presence of inhibitor, P2, compared to the plateau for the control, P1. (B) Inhibition that extends the time to aggregate formation is reported as the lag time extension. It is evidenced as an increase in the experimental lag time, T2, relative to the lag time for the control, T1, and evaluated as a fold increase relative to the control, T2/T1.

[2] = test system: AChE; set-up: method as in PMID 27769620; details: previous study; cited from earlier work
[3] = target: T2, electric eel AChE (Electrophorus electricus, UniProt O42275); assay: AChE inhibition assay (modified Ellman method); assay type: biochemical; details: 0.1 M sodium phosphate pH 8.0, 37 °C, 200 µM acetylthiocholine
T2 construct: purchased Sigma (Sigma-Aldrich, St. Louis, MO, USA)
T2 sequence (O42275 24-633): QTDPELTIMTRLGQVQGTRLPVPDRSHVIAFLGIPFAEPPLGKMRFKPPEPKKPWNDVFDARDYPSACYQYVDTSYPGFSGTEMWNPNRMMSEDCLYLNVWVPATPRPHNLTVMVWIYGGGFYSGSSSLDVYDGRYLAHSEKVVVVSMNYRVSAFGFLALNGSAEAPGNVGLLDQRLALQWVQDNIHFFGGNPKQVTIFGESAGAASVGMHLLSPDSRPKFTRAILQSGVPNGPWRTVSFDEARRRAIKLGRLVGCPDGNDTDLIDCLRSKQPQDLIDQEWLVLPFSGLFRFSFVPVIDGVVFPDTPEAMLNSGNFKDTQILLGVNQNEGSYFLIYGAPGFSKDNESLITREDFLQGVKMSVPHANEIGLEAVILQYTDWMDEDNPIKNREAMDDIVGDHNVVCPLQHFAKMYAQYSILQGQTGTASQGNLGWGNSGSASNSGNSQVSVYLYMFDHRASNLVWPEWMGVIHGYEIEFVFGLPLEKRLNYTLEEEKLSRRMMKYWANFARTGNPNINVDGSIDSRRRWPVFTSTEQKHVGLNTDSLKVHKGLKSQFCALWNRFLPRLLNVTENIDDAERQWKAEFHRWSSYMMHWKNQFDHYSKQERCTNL
Experimental: Aβ40 was purchased from AnaSpec (AnaSpec, Fremont, CA, USA) and stored in lyophilized form at −20 °C. Thioflavin T (ThT) and electric eel AChE were obtained from Sigma (Sigma-Aldrich, St. Louis, MO, USA). Bovine serum albumin (BSA) and dimethyl sulfoxide (DMSO) were purchased from EMD Biosciences (EMD Biosciences, San Diego, CA, USA). Tris-HCl (pH 8.0) was prepared using Tris base, purchased from Promega (Promega, Madison, WI, USA) and Tris hydrochloride, purchased from EMD (EMD, Burlington, MA, USA).
The AChE inhibition assay was modified based on the method of Ellman et al. in a 24-well plate format at 37 °C. Assays were performed in 0.1 M sodium phosphate (pH 8.0), containing 200 µM acetylthiocholine, 100 µM dithiobisnitrobenzoic acid, and 0.005 units of AChE in a final volume of 3000 µL. The reaction was initiated by the addition of acetylthiocholine, and the formation of a product was monitored by measuring absorbance at 412 nm. The IC50 values were determined by nonlinear regression analysis of the concentration–response curves generated. Each compound was evaluated using at least three independent experiments.

Row | Compound | Plateau Reduction (% Inhibition) [1] | Lag Time Extension (Fold Increase) [1] | inhibition at 100 µM [1] [%] | IC50 [2] [nM] | IC50 [3] [µM]
1 | 2-(2-(Methylthio)ethyl)-5-nitro-1H-benzo[de]isoquinoline-1,3(2H)-dione [Compound 7] | abrogated and N.E. | N.E. |  |  | 
2 | CC1CC(=O)N(CCSCc2ccc(CN(C)C)o2)C1=O (centres unmarked) [Compound 1] | N.E. | 2.8 ± 0.6 fold |  |  | 
3 | CN(C)Cc1ccc(CSCCN2C(=O)c3ccccc3C2=O)o1 [Compound 2] | N.E. | lost and N.E. |  |  | 
4 | CN(C)Cc1ccc(CSCCN2C(=O)c3cccc4cccc(c34)C2=O)o1 [Compound 3] |  | lost and N.E. | 60.9 |  | 
5 | CN(C)Cc1ccc(CSCCN2C(=O)c3ccc([N+](=O)[O-])cc3C2=O)o1 [Compound 5] |  | 2.0 ± 0.6 fold | 39.1 |  | 
6 | CN(C)Cc1ccc(CSCCN2C(=O)c3cccc4cc([N+](=O)[O-])cc(c34)C2=O)o1 [Compound 6] |  | N.E. | 71.8 | 150 | 
7 | CN(C)Cc1ccc(CSCCN2C(=O)c3cccc4c(Cl)ccc(c34)C2=O)o1 [Compound 8, 6-Chloro-2-(2-(((5-((dimethylamino)methyl)furan-2-yl)methyl)thio)ethyl)-1H-benzo [de]isoquinoline-1,3(2H)-dione] |  | N.E. | 65.8 |  | 1.23
8 | CN(C)Cc1nc(CSCCN2C(=O)c3cccc4cccc(c34)C2=O)cs1 [Compound 9, 2-(2-((2-((Dimethylamino)methyl)thiazol-4-yl)methylthio)ethyl)-1H-benzo[de]iso quinoline-1,3(2H)-dione] | 54.2% ± 5.1% | N.E. | 61.4 |  | 2.02
9 | CN(C)Cc1nc(CSCCN2C(=O)c3cccc4cc([N+](=O)[O-])cc(c34)C2=O)cs1 [Compound 10, 2-(2-(((2-((Dimethylamino)methyl)thiazol-4-yl)methyl)thio)ethyl)-5-nitro-1H-benzo[de]isoquinoline-1,3(2H)-dione] | 61.4% ± 19.7% | N.E. | 54.2 |  | 0.52
10 | O=C1c2cccc3cc([N+](=O)[O-])cc(c23)C(=O)N1CCc1ccco1 [Compound 11, 2-(2-(furan-2-yl)ethyl)-5-nitro-1H-benzo[de]isoquinoline-1,3(2H)-dione] |  | 1.76 ± 0.61 fold | 60.3 |  | 
11 | CN(C)Cc1ccc(CCN2C(=O)c3cccc4cc([N+](=O)[O-])cc(c34)C2=O)o1 [Compound 12, 2-(2-(5-((Dimethylamino)methyl)furan-2-yl)ethyl)-5-nitro-1H-benzo[de]isoquino line-1,3(2H)-dione] |  | 2.25 ± 0.25 fold | 65.6 |  | 0.36
12 | CN(C)Cc1ccc(C[S+]([O-])CCN2C(=O)c3cccc4cc([N+](=O)[O-])cc(c34)C2=O)o1 (centres unmarked) [Compound 13, 2-(2-(((5-((Dimethylamino)methyl)furan-2-yl)methyl)sulfinyl)ethyl)-5-nitro-1H-benzo[de]isoquinoline-1,3(2H)-dione] |  | N.E. | 26.8 |  | 
13 | CN(C)Cc1ccc(C[S+]([O-])CCN2C(=O)c3cccc4cccc(c34)C2=O)o1 (centres unmarked) [Compound 14, 2-(2-(((5-((Dimethylamino)methyl)furan-2-yl)methyl)sulfinyl)ethyl)-1H-benzo[de] isoquinoline-1,3(2H)-dione] |  | N.E. | 20.1 |  | 
14 | C[N+](C)([O-])Cc1ccc(CS(=O)(=O)CCN2C(=O)c3cccc4cc([N+](=O)[O-])cc(c34)C2=O)o1 [Compound 15, N,N-Dimethyl-1-(5-(((2-(5-nitro-1,3-dioxo-1H-benzo[de]isoquinolin-2(3H)-yl)ethyl)sulfonyl)methyl)furan-2-yl)methanamine oxide] |  | N.E. | 20.4 |  | 
